# Results: PubChem BioAssay AID179 (DTP/NCI, 2004)
# The source made the active and inactive calls.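 Rule for the calls: active = compounds giving half or more protection of infected cells from virus-caused growth loss, again on retest; inactive = the rest.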 Where a SMILES comes first, the peptide text is derived from it. The star is where a group is joined. Cbz = O=C(OCc1ccccc1)*; NHNH2 = NN*
# Test system: CEM cells HIV-1 protection, formazan growth assay
# Assay: NCI AIDS Antiviral Assay
# Conditions: for IC50: measured here: growth of uninfected CEM cells
# Method in brief: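 Steps: treat uninfected and HIV-1-infected human CEM cells at five drug levels; quantify growth by soluble formazan; retest any compound reaching 50% protection; classify actives from the retest.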
Structure (SMILES),EC50 [µM],IC50 [µM],outcome
CC1=C(C(=O)Nc2ccccc2)C(c2ccc(Cl)c(Cl)c2)C(C(=O)Nc2ccccc2)=C(C)N1,> 10.7,> 10.7,–
CCOC(=O)C(NC(=O)c1ccc(N=NN(C)C)cc1)C(C)C (stereo unspecified),> 407,309,–
Fc1nc(F)nc(-c2c3ccccc3c3n2CCS3)n1,> 25.1,> 25.1,–
S=c1[nH]nc(Nc2ccc(Cl)cc2)s1,> 200,79.4,–
CCOc1ccc(/C=C(\C#N)c2cccc(Cl)c2)cc1,> 200,8.51,–
CCOC(=O)C(c1ccccc1)[N+](C)(C)C (stereo unspecified),> 200,> 200,–
CCN(CC)CCn1c2cc3c(cc2c(=O)c2cccnc21)OCO3,> 200,7.94,–
CNc1ccc(Cl)cc1S(=O)(=O)c1ccccc1Br,> 200,3.89,–
COC(COC(N)=O)C1=C(N2CC2)C(=O)C(C)=C(N2CC2)C1=O (stereo unspecified),> 2,0.0166,–
CC1=C2C(=CO[C@H](C)[C@H]2C)C(=O)C(C(=O)O)=C1O,> 145,25.1,–
N#CC1(c2ccccc2)CCNCC1,> 1120,562,–
CCC[CH2][Sn]1([CH2]CCC)[O]CC([CH2][Sn]([c]2ccccc2)([c]2ccccc2)[c]2ccccc2)[O]1 (stereo unspecified),> 3.98,0.0234,–
O=C(Nc1cc2c(=O)oc3ccccc3c2oc1=O)c1cccnc1,> 100,> 100,–
O=S(=O)(O)SCc1ccccc1CSS(=O)(=O)O,> 200,> 200,–
CC1=NC(=Cc2ccc(O)cc2)C(=O)N1n1c(-c2ccccc2)nc2ccccc2c1=O,> 200,21.9,–
NC(=O)N=Nc1c2ccccc2n2[nH]ccc12,> 200,81.3,–
CCCCC1CC(c2cccc([N+](=O)[O-])c2)=NO1 (stereo unspecified),> 15.1,> 15.1,–
CC12CC(C#N)(C#N)C(C#N)(CO1)C(=N)O2 (stereo unspecified),> 200,42.7,–
CCOC(=O)/C(=C/c1ccccn1)C(=O)c1ccccc1,> 240,12.6,–
Cc1cc(NS(=O)(=O)c2ccc(NC(=O)c3cccc4c(Nc5ccc(S(N)(=O)=O)cc5)c5ccccc5nc34)cc2)no1,> 148,> 148,–
N#Cc1cccc(Nc2ccccc2SSc2ccccc2Nc2cccc(C#N)c2)c1,> 58.9,4.79,–
COc1cc2ccc1-c1cc(ccc1O)CC1c3cc4c(cc3CCN1C)Oc1c(OC)cc3c(c1O4)C(C2)N(C)CC3 (stereo unspecified),–,–,inactive

Structure (SMILES),EC50 [µM],IC50 [µM],outcome
COC(=O)c1ccc(CCc2cc(O)c(Br)cc2O)cc1,> 200,10,–
CC1CCC2(CO)C(CO)=CCCC2[C@@]1(C)CC/C(=C/CO)CO (stereo partly specified),–,–,inactive
COc1ccc2c3c([nH]c2c1)CCN(CCCC(=O)c1ccc(F)cc1)C3,> 200,32.4,–
Cc1cn(C2COC(CO)C2CO)c(=O)[nH]c1=O (stereo unspecified),44.7,> 200,–
N#C/C(=C\c1ccc(F)cc1)c1nc2ccccc2c(=O)[nH]1,–,–,inactive
CCCC12C(C(=O)OC)C(=O)C(C(=O)OC)C1(C)C(C(=O)OC)C(=O)C2C(=O)OC (stereo unspecified),> 138,97.7,–
Cc1ccc(N=NN(C)C)cc1NC(=O)NCC(=O)OC(C)(C)C,> 200,107,–
Cc1c([O-])c([O-])c(-c2c([O-])c([O-])c(C)c3c2OCO3)c2c1OCO2.[C-]#[O+].[C-]#[O+].[C-]#[O+].[C-]#[O+].[C-]#[O+].[C-]#[O+].[C-]#[O+].[C-]#[O+].[Re].[Re],> 174,93.3,–
COc1ccc(NS(=O)(=O)c2ccc(NC(NC(=O)CC(C)C)(C(F)(F)F)C(F)(F)F)cc2)nn1,> 200,191,–
Nc1nc(N)nc(-c2ccccc2-c2nc(N)nc(N)n2)n1,> 200,> 200,–
COc1cc2c(cc1OC)C(=O)c1nccc3ccc(OC)c(c13)O2,> 53.7,43.7,–
Cc1ncc(CCl)c2c1OC(C)(C)OC2,> 676,7.94,–
CN1C(=O)CN(NC(=O)C2=C(O)c3ccc(Br)cc3S(=O)(=O)N2)C1=S,> 200,51.3,–
Nc1ncnc2c1ncn2C1OC(CCP(=O)(O)O)C(O)C1O (stereo unspecified),> 100,> 100,–
CC(=O)[CH-]C(=O)c1ccccc1.CC(=O)[CH-]C(=O)c1ccccc1.[CH2-]CCC.[CH2-]CCC.[Sn+4],> 46.8,0.776,–
CCN(CC)C(=O)O/N=C(/C)c1ccccc1,> 200,> 200,–
N#CC(CCN1CCC(Nc2ccccc2)(c2nnnn2C2CCCCC2)CC1)(c1ccccc1)c1ccccc1,> 200,> 200,–
Nc1ccc2nc(Nc3ccc(F)cc3)cnc2c1,> 20.4,> 20.4,–
O=C1c2ccccc2N2OC3(N4CCCC4)CCCC3C12c1ccccc1 (stereo unspecified),> 38,> 38,–
O=C1OC(c2ccccc2)=C2CCC3CCCCN1C23 (stereo unspecified),> 132,> 132,–
COc1cccc(NC(=O)CC(=O)NN)c1,> 200,> 200,–
O=C(Cn1c2c(c3ccccc31)CCCC2)N1CCOCC1,> 200,> 200,–

Structure (SMILES),EC50 [µM],IC50 [µM],outcome
CCOC(=O)c1c(N2CCCC2)ncn(-c2ccccc2)c1=S,> 200,> 200,–
Clc1ccc(C2=Cc3nc2c(-c2ccccc2)c2ccc([nH]2)c(-c2ccccc2)c2nc(c(-c4ccccc4)c4ccc([nH]4)c3-c3ccccc3)C=C2)cc1,> 200,> 200,–
C/C(=N\N(C)C)C(CN(C)C)C(c1ccccc1)c1c(O)c2ccccc2oc1=O (stereo unspecified),> 100,91.2,–
CC(NNC(=O)c1ccncc1)c1ccccc1 (stereo unspecified),> 200,75.9,–
C=CCC1(O)C(CO[Si](C)(C)C(C)(C)C)OC(n2ccc(=O)[nH]c2=O)C1O[Si](C)(C)C(C)(C)C (stereo unspecified),> 200,10.2,–
CN(C)c1nc(N(C)C)nc(N(C)CN(C)c2ccc(Cl)cc2)n1,> 50.1,> 50.1,–
O=C(O)CSc1n[nH]c(Cc2ccccc2)n1,> 1000,> 1000,–
COC(=O)[C@H](Cc1c[nH]c2ccccc12)NP(=O)(OC)OCC1OC(n2cc(C)c(=O)[nH]c2=O)CC1N=[N+]=[N-] (stereo partly specified),69.2,> 200,–
Cc1ccc(N2C(=O)C=C(C3=C(O)C(=O)N(c4ccc(C)cc4)C3=O)C2=O)cc1,135,> 200,–
O=C1NC(O)n2c(=O)[nH]c(=O)n21 (stereo unspecified),–,–,inactive
CC(=O)C1(O)CC2(c3ccccc3)C(=O)C1(c1ccccc1)C(c1ccccc1)=C2c1ccccc1 (stereo unspecified),–,–,inactive
COc1cccc2c1OC(c1ccc(C#N)cc1)C([N+](=O)[O-])=C2 (stereo unspecified),> 200,1.58,–
Cc1cn(C(CO)OC(CO)CN(O)C2C3CC4CC(C3)CC2C4)c(=O)[nH]c1=O (stereo unspecified),> 200,> 200,–
COc1ccc(C(OCC2OC(n3ccc(Oc4c(F)c(F)c(F)c(F)c4F)nc3=O)CC2OP(OCCC#N)N(C(C)C)C(C)C)(c2ccccc2)c2ccc(OC)cc2)cc1 (stereo unspecified),> 200,89.1,–
COc1ccc(/S(C)=N/S(=O)(=O)c2ccc(C)cc2)cc1 (stereo unspecified),> 288,263,–
O=C(CC1(CC(=O)NCc2ccccc2)OCCO1)NCc1ccccc1,–,–,inactive
C=C1C(=O)O[C@H]2C/C(C=O)=C\[C@H]3O[C@H]3/C(COC(=O)C(C)C)=C/CC12 (stereo partly specified),> 200,1.62,–
CCC12C=CCN3CC[C@@]4(c5ccc(OC)cc5N(C)[C@H]4[C@@](O)(C(=O)OC)[C@@H]1OC(C)=O)C32 (stereo partly specified),–,–,inactive
CCCCCCCCCCSC(=O)NC,–,–,inactive
O=[P+](O)c1cccs1,–,–,inactive
CCOc1ccc(N=Cc2cccc3cccnc23)cc1,–,–,inactive
O=C1C=CC2CCC1C2 (stereo unspecified),–,–,inactive

Structure (SMILES),EC50 [µM],IC50 [µM],outcome
C/C(=C\c1ccccc1)C(=O)c1c(C)cc(C)cc1C,> 38,> 38,–
NNC(=O)C1C(C(=O)NN)C2C3C=CC(C4C(=O)NC(=O)C34)C12 (stereo unspecified),> 200,> 200,–
CC(=O)Nc1ccc(S(=O)(=O)N/N=C/c2ccc(C)cc2)cc1,> 398,> 398,–
O=C1/C(=C/c2ccc([N+](=O)[O-])cc2)Cc2ccccc21,> 2.04,> 2.04,–
O=C(O)/C=C\C(=O)NCCCNC(=O)/C=C\C(=O)O,> 933,> 933,–
COc1ccc(-c2cc(-c3ccccc3)n(C3OC(COC(C)=O)C(OC(C)=O)C(OC(C)=O)C3OC(C)=O)c(=S)c2C#N)cc1 (stereo unspecified),> 166,32.4,–
COC(=O)C(Cc1nc2ccccc2[nH]c1=O)C(=O)C(=O)Nc1ccc(F)cc1 (stereo unspecified),> 91.2,16.2,–
NC(CSP(=O)(O)O)=NCC12CC3CC(CC(C3)C1)C2,–,–,inactive
CC(C)C(NC(=O)C1CCCN1C(=O)OCc1ccccc1)C(=O)NN (stereo not drawn) (Cbz-Pro-Val-NHNH2; configuration not given here),> 692,407,–
C1N2CN3CN1CN(C2)C3.[Cu+2],–,–,inactive
COc1ccc(-c2c(C#N)c(S)n(NS(=O)(=O)c3ccccc3)c(=O)c2C#N)cc1,> 200,12.6,–
O=C(O)[C@@H]1CSC(c2cccc(F)c2)N1 (stereo partly specified),> 200,> 200,–
COC(=O)/C(C#N)=C(\N)c1c(C)c2ccccc2oc1=N,> 200,> 200,–
O=C1C(=O)N(CNC(c2ccccc2)c2ccccc2)c2ccccc21,> 126,102,–
C=CCN1COc2c(cc3c4c(cccc24)C(=O)O3)C1,> 26.9,4.27,–
NNc1nnc(-c2ccccc2)nc1Cc1ccccc1,> 25.7,13.8,–
O=C1NC(=O)N2CC(CI)OC2C1c1ccccc1 (stereo unspecified),> 97.7,> 97.7,–
COc1cc(C[S+]2CCCC2)c(SC)cc1C[S+]1CCCC1,> 83.2,> 83.2,–
O=C(Cc1ccccc1)c1ccc2[nH]c(=O)oc2c1,> 200,102,–
COc1cccc(C2c3cc4c(cc3OC(C)(O)C2C)OCO4)c1O (stereo unspecified),> 200,0.646,–
CCN(CC)CCO/N=C1\CC[C@H]2[C@@H]3CC=C4C[C@@H](O)CC[C@]4(C)[C@H]3CC[C@]12C,> 200,15.5,–
